{
  "source": "patent US6652890B2",
  "about": "“Tea catechins as cancer specific proliferation inhibitors” (Purdue Research Foundation, priority 1999, dated 2003)",
  "target": "T1, NADH oxidase of plasma membranes from MCF-10A human mammary epithelial (non-cancer) cells (Homo sapiens, UniProt Q8TC92)",
  "T1 construct": "endogenous in cells; host or cells: MCF-10A plasma membrane vesicles",
  "T1 sequence (Q8TC92 1-643)": "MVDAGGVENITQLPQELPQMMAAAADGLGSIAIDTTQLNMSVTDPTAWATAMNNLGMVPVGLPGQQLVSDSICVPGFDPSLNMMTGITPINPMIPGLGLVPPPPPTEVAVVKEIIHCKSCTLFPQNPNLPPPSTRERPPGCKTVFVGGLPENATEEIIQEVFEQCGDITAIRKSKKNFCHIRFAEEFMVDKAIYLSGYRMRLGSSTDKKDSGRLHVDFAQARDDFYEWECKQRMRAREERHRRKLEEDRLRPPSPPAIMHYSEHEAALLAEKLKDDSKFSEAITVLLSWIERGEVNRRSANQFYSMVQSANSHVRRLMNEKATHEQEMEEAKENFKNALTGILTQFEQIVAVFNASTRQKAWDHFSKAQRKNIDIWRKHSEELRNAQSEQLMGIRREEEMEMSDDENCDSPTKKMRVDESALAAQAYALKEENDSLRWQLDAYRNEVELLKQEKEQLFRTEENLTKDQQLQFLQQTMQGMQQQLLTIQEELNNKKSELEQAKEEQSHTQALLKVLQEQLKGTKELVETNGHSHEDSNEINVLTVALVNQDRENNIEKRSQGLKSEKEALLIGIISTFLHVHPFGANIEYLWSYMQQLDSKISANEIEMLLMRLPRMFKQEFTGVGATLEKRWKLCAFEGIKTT",
  "test": "NADH oxidase activity of isolated plasma membrane vesicles",
  "type": "biochemical",
  "conditions": "EGCg dose-response, FIG. 2A",
  "method": "Cultured cells were collected by centrifugation for 6-15 min at 175-1000×g. The cell pellets were resuspended in 0.2 mM EDTA in 1 mM NaHCO3 in an approximate ratio of 1 ml per 10^8 cells and incubated on ice for 10-30 min to swell the cells. […] To estimate breakage, the cells were monitored by light microscopy before and after homogenization. At least 90% cell breakage without breakage of nuclei was achieved routinely.\nThe homogenates were centrifuged for 10 min at 175×g to remove unbroken cells and nuclei and the supernatant was centrifuged a second time at 1.4×10^6 g·min (e.g., 1 h at 23,500×g) to prepare a plasma membrane-enriched microsome fraction. The supernatant was discarded and the pellets were resuspended in 0.2 M potassium phosphate buffer in a ratio of ˜1 ml per pellet from 5×10^8 cells. […] The purity of the plasma membrane was determined to be >90% by electron microscope morphometry. […]\nNADH oxidase activity was determined as the disappearance of NADH measured at 340 nm in a reaction mixture containing 25 mM Tris-Mes buffer (pH 7.2), 1 mM KCN to inhibit low levels of mitochondrial oxidase activity, and […] at 37° C. with stirring. Activity was measured using a Hitachi U3210 or SLM Aminco DW2000 spectrophotometer with continuous recording over two intervals of 5 min each. […]",
  "data": [
    {"substance": "(−) - epigallocatechin gallate [EGCg]", "values": [
      {"measurement": "Effect on NADH oxidase activity", "value": "without effect"}
    ]}
  ]
}
